{"source": "patent US20120022121A1", "about": "“INDOLES, DERIVATIVES AND ANALOGS THEREOF AND USES THEREFOR” (priority 2007, published 2012)", "key": {"[1]": {"test_system": "LNCaP and PC-3 cells", "assay": "Anti-histone ELISA for apoptosis", "type": "cell-based, human", "conditions": "100 nM; LNCaP 24 h, PC-3 48 h", "experimental": "Cell viability (LNCaP, PC-3 prostate, DU145, PPC-1, and TSU-Pr1 prostate cancer cell lines, HT-29 colon cancer cell line, and MCF-7 breast cancer cell line) was quantitated using the sulforhodamine B (SRB) assay after 96 h coincubation with different concentrations of compound in 96-well plates. Cell viability of leukemia cells (K562 and doxorubicin-resistant K562/Dox) was quantitated by MTT assay after 96 h coincubation with different concentrations of compound in 96-well plates. Drug-induced apoptosis was determined by anti-histone ELISA assay and DNA laddering. Cell cycle progression was assessed by propidium iodide staining and fluorescence-activated cell sorting (FACS) analysis. In vitro tubulin polymerization assay was determined by CytoDYNAMIX ScreenTM3 (CDS-03) kits according to the manufacturer's instructions. Anti-apoptosis protein (Bcl-2 and Bcl-xl) and pro-apoptosis protein (Bax) were examined in LNCaP and PC-3 after 24 h incubation with different concentrations of compound 13 by Western blot assay. In vivo PC-3 xenograft studies were conducted by i.v. dosing of 50 mg/kg, 100 mg/kg and 150 mg/kg for 2 weeks.\n100 nM of compound 13 was incubated with LNCaP for 24 h and PC-3 for 48 h. […] The results are expressed as enrichment factor (Enrichment factor=OD of treated cells/OD from control cells). […]"}, "[2]": {"test_system": "LNCaP and PC-3 cells", "assay": "DNA fragmentation by agarose gel electrophoresis", "type": "cell-based, human", "experimental": "LNCaP and PC-3 cells were treated with different concentrations of drugs for different periods of time. At the end of the incubation, both floating and adherent cells were collected. […] DNA was visualized by ethidium bromide staining and UV transillumination."}, "[3]": {"test_system": "PC-3", "assay": "Growth inhibition assay (SRB, 96 h)", "type": "cell-based, human", "conditions": "PC-3, 96 h", "description": "(§1) MTT (3-(4,5-dimethylthiazol-2-yl)-2,5-diphenyltetrazolium bromide) assay was also used for the leukemia cell lines. […] Cells were stained with SRB solution or MTT solution."}, "[4]": {"test_system": "K562", "assay": "Growth inhibition assay (MTT, 96 h)", "type": "cell-based", "conditions": "Homo sapiens, K562 (parental)", "description": "as §1"}, "[5]": {"test_system": "MES-SA xenografts", "assay": "In vivo antitumor efficacy, MES-SA xenograft", "design": "species or system mice", "conditions": "q2d, i.p.", "experimental": "(§2) The control group was treated with vehicle (10% DMSO in PEG300)."}, "[6]": {"test_system": "MRP2 (over-expressed in the cells)", "assay": "Growth inhibition assay (96 h)", "type": "cell-based, human", "conditions": "human, HEK293 cells over-expressing MRP2 (HEK293-MRP2); HEK293-MRP2, MRP2 over-expressed, 96 h"}, "[7]": {"assay": "Rotarod performance", "type": "in vivo, ICR mice", "experimental": "The training and rotarod test was conducted as described previously. Briefly, during the training phase for 2 consecutive days (3 trials/day), mice (10 mice/group) were trained to run in a rotarod apparatus without falling at a constant speed (12 rpm) for a maximum of 2 min. For the rotarod performance test, duration of each trial was less than 5 min. […] Tests were performed for 2 weeks (2 days/week). The animals were tested in three trials per day with an intertrial interval of 30 min. Animal performance was recorded as the average elapsed time for the mice to fall off."}, "[8]": {"test_system": "PC-12 cells", "assay": "In vitro NGF-dependent neurite outgrowth", "type": "cell-based", "experimental": "PC-12 cells were seeded in 6-well plates coated with poly-D-lysine (BD, Franklin Lakes, N.J.) (10000 cells/well). After 6 h, cells were pretreated for 3 days by adding 100 ng/mL murine 2.5S β-NGF (Promega, Madison, Wis.) to induce neuronal differentiation and neurite outgrowth. Differentiated cells were then treated for 24 h with compounds at various concentrations in the presence of NGF (100 ng/mL). Vinblastine and docetaxel were used as positive controls. After compound treatments, approximately 100 cells in each well were randomly chosen and the numbers of cells with no neurites, short neurites (<2×cell body), and long neurites (>2×cell body) were counted (n=3)."}, "[9]": {"test_system": "tubulin", "assay": "In vitro binding assay by spin column", "design": "species or system bovine", "conditions": "colchicine-binding site, 37° C., 1 h"}, "[10]": {"test_system": "T1, tubulin", "T1 construct": "IC50 of microtubule formation (tubulin polymerization); other: cell free, turbidity 340 nm, 40 min", "assay": "In vitro binding assay by spin column", "design": "species or system bovine", "conditions": "vinblastine-binding site, 37° C., 1 h"}, "[11]": {"test_system": "PC-3 cells", "assay": "Cell cycle analysis (PI staining, FACS)", "type": "cell-based, human", "conditions": "for percentage of PC-3 cells in G2M phase: 24 h; for EC50: Homo sapiens, 0.1 nM to 1 μM, read-out: EC50 of cell cycle arrest in G2M phase; for EC50 / percentage of sub-G1 phase: PC-3, 24 h", "experimental": "Cell cycle distribution was determined by propidium iodide (PI) staining. Treated cells were washed with PBS and fixed with 70% ice-cold ethanol overnight. Fixed cells were then stained with 20 μg/mL of PI in the presence of RNase A (300 μg/mL) at 37° C. for 30 min. Cell cycle distribution was analyzed by fluorescence-activated cell sorting (FACS)."}, "[12]": {"test_system": "MCF-7", "assay": "Growth inhibition assay (SRB, 96 h)", "type": "cell-based", "conditions": "Homo sapiens, MCF7; MCF-7, 96 h", "description": "as §1"}, "[13]": {"test_system": "HT-29", "assay": "Growth inhibition assay (SRB, 96 h)", "type": "cell-based", "conditions": "Homo sapiens, HT-29, 96 h", "description": "as §1"}, "[14]": {"test_system": "TSU-Pr1", "assay": "Growth inhibition assay (SRB, 96 h)", "type": "cell-based", "conditions": "Homo sapiens, TSU-Pr1, 96 h", "description": "as §1"}, "[15]": {"test_system": "MES-SA/DX5 xenografts", "assay": "In vivo antitumor efficacy, MES-SA/DX5 xenograft", "conditions": "for TGI (tumor growth inhibition): MES-SA/DX5 xenograft, q2d, i.p.", "experimental": "as §2"}, "[16]": {"test_system": "PC-3 cells", "assay": "DNA fragmentation by cell death detection ELISA (anti-histone)", "type": "cell-based", "conditions": "Homo sapiens, 24 h, read-out: EC50 of increase of enrichment factor (DNA fragmentation)", "experimental": "Apoptosis was measured by quantitation of cytoplasmic histone-associated DNA fragments using the cell death detection ELISA kit. Cells were seeded in 6-well plates and exposed to 68 for 24 h at different concentrations. The quantitation of DNA fragments was performed according to the manufacturer's instructions. Results are expressed as the enrichment factor (i.e., the ratio of the optical density in treated cells to the optical density in control cells)."}}, "note": "Entries after “also recorded” stand apart in the source; their conditions may differ.", "data": [{"smiles": "O=C(c1cccc(-c2cc3ccccc3[nH]2)c1)c1cc2ccccc2[nH]1", "note": "[Compound 13, (1H-indol-2-yl)-[3-(1H-indol-2-yl)phenyl]methanone]", "values": [{"measurement": "apoptosis by anti-histone ELISA", "setting": "[1]", "value": "detected apoptosis"}, {"measurement": "DNA fragmentation", "setting": "[2]", "value": "induced DNA fragmentation"}]}, {"smiles": "COc1cc(C(=O)c2cccc(-c3cc4ccccc4[nH]3)c2)cc(OC)c1OC", "note": "[Compound 68, [3-(1H-Indol-2-yl)-phenyl]-(3,4,5-trimethoxy-phenyl)-methanone]", "values": [{"measurement": "IC50", "setting": "[3]; Homo sapiens", "value": 28, "unit": "nM"}, {"measurement": "IC50", "setting": "[3]", "value": "28.2 ± 2", "unit": "nM"}, {"measurement": "IC50", "setting": "[4]", "value": "23.6 ± 2.4", "unit": "nM"}, {"measurement": "TGI (tumor growth inhibition)", "setting": "[5]; 5 mg/kg", "value": 47, "unit": "%"}, {"measurement": "TGI (tumor growth inhibition)", "setting": "[5]; 10 mg/kg", "value": 74, "unit": "%"}, {"measurement": "IC50 at 96 h", "setting": "[6]", "value": "31.5 ± 8", "unit": "nM"}, {"measurement": "rotarod performance", "setting": "[7]; 10 mg/kg i.p. q2d, 2 weeks, vs vehicle control", "value": "did not show impaired rotarod performance; also recorded: no loss of function"}, {"measurement": "cells with neurites", "setting": "[8]; PC12, 50 nM, 'a more toxic dose than IC50 value'", "value": 60, "unit": "%"}, {"measurement": "cells showing neurite elongation", "setting": "[8]; PC12, NGF 100 ng/mL, 24 h, 50 nM (vehicle 88%)", "value": 59, "unit": "%"}, {"measurement": "[3H]podophyllotoxin binding to tubulin", "setting": "[9]", "value": "inhibited"}, {"measurement": "displacement of [3H]vinblastine from tubulin", "setting": "[10]", "value": "not able to displace"}, {"measurement": "percentage of PC-3 cells in G2M phase", "setting": "[11]; 10 nM (control 19)", "value": 24, "unit": "%"}, {"measurement": "percentage of PC-3 cells in G2M phase", "setting": "[11]; 50 nM (control 19)", "value": 63, "unit": "%"}, {"measurement": "percentage of PC-3 cells in G2M phase", "setting": "[11]; 100 nM (control 19)", "value": 77, "unit": "%"}, {"measurement": "EC50", "setting": "[11]", "value": 34, "unit": "nM"}, {"measurement": "percentage of sub-G1 phase", "setting": "[11]; 10 nM (control 0.2)", "value": 0.5, "unit": "%"}, {"measurement": "percentage of sub-G1 phase", "setting": "[11]; 50 nM (control 0.2)", "value": 0.7, "unit": "%"}, {"measurement": "percentage of sub-G1 phase", "setting": "[11]; 100 nM (control 0.2)", "value": 1.3, "unit": "%"}, {"measurement": "IC50", "setting": "[12]", "value": "39.2 ± 2.9", "unit": "nM"}, {"measurement": "IC50", "setting": "[13]", "value": "15.1 ± 1.3", "unit": "nM"}, {"measurement": "IC50", "setting": "[14]", "value": "17.6 ± 2.1", "unit": "nM"}, {"measurement": "general toxicity and body weight loss", "setting": "[15]; MES-SA and MES-SA/DX5 xenograft mice, 5 or 10 mg/kg", "value": "did not induce any general toxicity or significant body weight loss"}, {"measurement": "TGI (tumor growth inhibition)", "setting": "[15]; 5 mg/kg", "value": 47, "unit": "%"}, {"measurement": "TGI (tumor growth inhibition)", "setting": "[15]; 10 mg/kg", "value": 76, "unit": "%"}, {"measurement": "EC50", "setting": "[16]", "value": 42.7, "unit": "nM"}]}, {"smiles": "CC[C@]1(O)C[C@@H]2CN(CCc3c([nH]c4ccccc34)[C@@](C(=O)OC)(c3cc4c(cc3OC)N(C)[C@H]3[C@@](O)(C(=O)OC)[C@H](OC(C)=O)[C@]5(CC)C=CCN6CC[C@]43[C@@H]65)C2)C1", "note": "[Vinblastine]", "values": [{"measurement": "IC50", "setting": "[3]; Homo sapiens", "value": 1, "unit": "nM"}, {"measurement": "TGI (tumor growth inhibition)", "setting": "[5]; 0.5 mg/kg", "value": 48, "unit": "%"}, {"measurement": "IC50 at 96 h", "setting": "[6]", "value": "18.1 ± 4", "unit": "nM"}, {"measurement": "rotarod performance", "setting": "[7]; 0.5 mg/kg i.p. q2d, day 4 to day 14", "value": "impaired performance"}, {"measurement": "mean time on the rotating rod", "setting": "[7]; 0.5 mg/kg i.p. q2d, end of 2 weeks (vehicle 151 s)", "value": 121, "unit": "s"}, {"measurement": "cells with long neurites", "setting": "[8]; PC12, NGF 100 ng/mL, 24 h, 5 nM", "value": 1.5, "unit": "%"}, {"measurement": "cells with elongated neurites", "setting": "[8]; PC12, NGF 100 ng/mL, 24 h, 5 nM (vehicle 88%)", "value": "Twenty-one"}, {"measurement": "EC50", "setting": "[11]", "value": 7, "unit": "nM"}, {"measurement": "IC50", "setting": "[12]", "value": "1.4 ± 0.4", "unit": "nM"}, {"measurement": "IC50", "setting": "[13]", "value": "2.4 ± 0.2", "unit": "nM"}, {"measurement": "IC50", "setting": "[14]", "value": "1.6 ± 0.1", "unit": "nM"}, {"measurement": "TGI (tumor growth inhibition)", "setting": "[15]; 0.5 mg/kg", "value": 24, "unit": "%"}, {"measurement": "EC50", "setting": "[16]", "value": 8.1, "unit": "nM"}]}]}
